# Publication PMC7560342, “In Vitro and In Vivo Evaluation of the Toxic Effects of Dodecylguanidine Hydrochloride” (Toxics, 2020)
# Entries after “also recorded” stand apart in the source; their conditions may differ.
# Experiments:
# Sprague-Dawley rats = experiment: Acute inhalation study (4 h aerosol exposure); assay type: in vivo, rat
# Protocol: Specific-pathogen-free (SPF) male and female Sprague-Dawley (six-week-old) rats were purchased from Orient Bio Inc. (Sungnam, Korea). The temperature and relative humidity of the animal maintenance room was set to 22 ± 3 °C and 30 to 70%, respectively, with a 12:12 h light/dark cycle. Diet (LabDiet 5053, Orient Bio Inc., Sungnam, Korea) and water were supplied ad libitum. Following an acclimatization period of one week, the rats were randomly divided into four groups (five males and five females per group) for the acute inhalation study. All animal experiments were approved by the Animal Care and Use Committee of the National Institute of Environmental Research, Republic of Korea (identification code: NIER-2019-01-01-011; date of approval: 15 May 2019). The left lung of the rats was used for histopathological analysis and the right lung was used for bronchoalveolar lavage fluid (BALF) analysis, including lung cell damage and pulmonary inflammation.
# The inhalation aerosols of the DGH solutions were generated using an atomizer with a clean air flow of 250 L/min. […] In the acute toxicity test, all the rats in each group were sacrificed immediately after exposure. Temperature, humidity, air flow, and air pressure were monitored during the exposure using a Model VT3-X15 environmental controller (Sibata, Saitama, Japan). The concentration of DGH was analyzed by sampling the chamber air using a SIP-32L (Sibata, Saitama, Japan) and measuring the weight of the membranes (T60A20, Φ55). The mass median aerodynamic diameter (MMAD) and geometric standard deviation (GSD) of DGH in the exposure chamber were measured using an Andersen cascade impactor (AN-200, Sibata, Saitama, Japan).
# Hematology and serum biochemistry of ten rats in each group were analyzed, as described in previous studies. Briefly, blood samples of the animals were drawn from the ventral aorta using a syringe, under anesthesia. The blood samples were collected into CBC bottles containing ethylenediaminetetraacetic acid (EDTA) (K2 EDTA, BD vacutainer) and analyzed within 15 min, using an automatic hematology LC-662G, Kyoto, Japan. The following parameters were determined: white blood cell count, red blood cell count, hemoglobin, hematocrit, mean corpuscular volume, mean corpuscular hemoglobin, mean corpuscular hemoglobin concentration, red blood cell volume distribution width, platelets, mean platelet volume, […], and platelet distribution width. Blood samples were drawn from the ventral aorta using a syringe and collected in a serum vacutainer. The sera were collected by centrifugation at 2000 rpm for 10 min within 2 h after collection and stored at −80 °C in a freezer, prior to analysis. The following serum biochemistry parameters were determined using an automatic serum analyzer (Drichem4000, Fuji Photo Film, Tokyo, Japan): alkaline phosphatase, lactate dehydrogenase (LDH), glucose, total cholesterol, glutamic oxaloacetate transaminase, glutamic pyruvate transaminase, urea nitrogen in blood, calcium, inorganic phosphorus, gamma glutamyl transferase, albumin, total protein, creatinine, total bilirubin, sodium, potassium, and chlorine.
# Sprague-Dawley (SD) rats = experiment: Histopathology of nasal cavity and lung after acute inhalation; assay type: in vivo, rat; settings: High 68 mg/m^3, 4 h; for Lung: Cell infiltration, terminal bronchiole/alveolar duct, neutrophils/macrophages / Lung: Intraluminal cell debris, terminal bronchiole/alveolar duct / Lung: No specific lesion / Nasal cavity Level 1: Acute inflammation with necrosis, focal / Nasal cavity Level 1: Cell infiltration, lymphocytes, focal / Nasal cavity Level 1: No specific lesion / Nasal cavity Level 2: Acute inflammation with necrosis, focal / Nasal cavity Level 2: Cell infiltration, lymphocytes, focal / Nasal cavity Level 2: No specific lesion / Nasal cavity Level 3: Cell infiltration, lymphocytes, focal / Nasal cavity Level 3: No specific lesion / Nasal cavity Level 4: Cell infiltration, lymphocytes, focal / Nasal cavity Level 4: No specific lesion: cases (percentage) of 5 examined; for Lung: Cell infiltration, terminal bronchiole/alveolar duct, neutrophils/macrophages; Grade: minimal / Lung: Intraluminal cell debris, terminal bronchiole/alveolar duct; Grades: minimal / Nasal cavity Level 1: Acute inflammation with necrosis, focal; Grade: mild / Nasal cavity Level 1: Acute inflammation with necrosis, focal; Grade: minimal / Nasal cavity Level 1: Cell infiltration, lymphocytes, focal; Grade: minimal / Nasal cavity Level 2: Acute inflammation with necrosis, focal; Grade: mild / Nasal cavity Level 2: Acute inflammation with necrosis, focal; Grade: minimal / Nasal cavity Level 2: Cell infiltration, lymphocytes, focal; Grade: minimal / Nasal cavity Level 3: Cell infiltration, lymphocytes, focal; Grade: minimal / Nasal cavity Level 4: Cell infiltration, lymphocytes, focal; Grade: minimal: number of cases
# Protocol: The inhalation aerosols of the DGH solutions were generated using an atomizer with a clean air flow of 250 L/min. For the acute inhalation exposure study, the rats were exposed to 7.8 mg/m^3, 23 mg/m^3, and 70 mg/m^3 DGH for 4 h in the low, middle, and high exposure groups, respectively, and the control rats were exposed to clean air. In the acute toxicity test, all the rats in each group were sacrificed immediately after exposure. Temperature, humidity, air flow, and air pressure were monitored during the exposure using a Model VT3-X15 environmental controller (Sibata, Saitama, Japan). The concentration of DGH was analyzed by sampling the chamber air using a SIP-32L (Sibata, Saitama, Japan) and measuring the weight of the membranes (T60A20, Φ55). The mass median aerodynamic diameter (MMAD) and geometric standard deviation (GSD) of DGH in the exposure chamber were measured using an Andersen cascade impactor (AN-200, Sibata, Saitama, Japan).
# After the inhalation of DGH for 4 h, the animals were euthanized. After gross examination, the left lung and nasal cavity of the rats in the control and high-exposure groups were fixed in 10% neutral buffered formalin. The nasal cavity was decalcified with a decalcification solution and then cross-sectioned into four levels as follows: level 1 (posterior part of the upper incisors), level 2 (incisive papilla), level 3 (second palatine crest), level 4 (first upper molar teeth). Following routine tissue processing, the tissues were embedded in paraffin and sectioned into 3 μm thick sections. The tissue sections were stained with hematoxylin and eosin (H&E), and then examined under a light microscope (Olympus BX41, Tokyo, Japan). The lesions were graded according to severity by pathologists.
compound,measurement,setting,value
"CCCCCCCCCCCCN=C(N)N.Cl [DGH, Dodecylguanidine hydrochloride]",Spleen weight,"Sprague-Dawley rats; male rats, exposed groups, 4 h",significantly decreased; also recorded: decreased significantly
same,Body weight vs control,"Sprague-Dawley rats; rats, 8.6–68 mg/m^3, 4 h",no significant changes
same,Deaths,"Sprague-Dawley rats; rats, 8.6–68 mg/m^3, 4 h",no deaths occurred; also recorded: no death
same,Hematology vs control,"Sprague-Dawley rats; rats, 8.6–68 mg/m^3, 4 h",no significant changes
same,Serum biochemistry vs control,"Sprague-Dawley rats; rats, 8.6–68 mg/m^3, 4 h",no significant changes
same,LC50 (inhalation),"Sprague-Dawley rats; rats, exposure for 4 h, estimated",> 68 mg/m^3
same,"Lung: Cell infiltration, terminal bronchiole/alveolar duct, neutrophils/macrophages",Sprague-Dawley (SD) rats; female,3(60.0)
same,"Lung: Intraluminal cell debris, terminal bronchiole/alveolar duct",Sprague-Dawley (SD) rats; female,1(20.0)
same,Lung: No specific lesion,Sprague-Dawley (SD) rats; female,1(20.0)
same,"Nasal cavity Level 1: Acute inflammation with necrosis, focal",Sprague-Dawley (SD) rats; female,1(20.0)
same,"Nasal cavity Level 1: Cell infiltration, lymphocytes, focal",Sprague-Dawley (SD) rats; female,0(0.00)
same,Nasal cavity Level 1: No specific lesion,Sprague-Dawley (SD) rats; female,4(80.0)
same,"Nasal cavity Level 2: Acute inflammation with necrosis, focal",Sprague-Dawley (SD) rats; female,0(0.00)
same,"Nasal cavity Level 2: Cell infiltration, lymphocytes, focal",Sprague-Dawley (SD) rats; female,0(0.00)
same,Nasal cavity Level 2: No specific lesion,Sprague-Dawley (SD) rats; female,5(100)
same,"Nasal cavity Level 3: Cell infiltration, lymphocytes, focal",Sprague-Dawley (SD) rats; female,1(20.0)
same,Nasal cavity Level 3: No specific lesion,Sprague-Dawley (SD) rats; female,4(80.0)
same,"Nasal cavity Level 4: Cell infiltration, lymphocytes, focal",Sprague-Dawley (SD) rats; female,2(40.0)
same,Nasal cavity Level 4: No specific lesion,Sprague-Dawley (SD) rats; female,3(60.0)
same,"Lung: Cell infiltration, terminal bronchiole/alveolar duct, neutrophils/macrophages; Grade: minimal",Sprague-Dawley (SD) rats; female,3
same,"Lung: Intraluminal cell debris, terminal bronchiole/alveolar duct; Grades: minimal",Sprague-Dawley (SD) rats; female,1
same,"Nasal cavity Level 1: Acute inflammation with necrosis, focal; Grade: mild",Sprague-Dawley (SD) rats; female,0
same,"Nasal cavity Level 1: Acute inflammation with necrosis, focal; Grade: minimal",Sprague-Dawley (SD) rats; female,1
same,"Nasal cavity Level 1: Cell infiltration, lymphocytes, focal; Grade: minimal",Sprague-Dawley (SD) rats; female,0
same,"Nasal cavity Level 2: Acute inflammation with necrosis, focal; Grade: mild",Sprague-Dawley (SD) rats; female,0
same,"Nasal cavity Level 2: Acute inflammation with necrosis, focal; Grade: minimal",Sprague-Dawley (SD) rats; female,0
same,"Nasal cavity Level 2: Cell infiltration, lymphocytes, focal; Grade: minimal",Sprague-Dawley (SD) rats; female,0
same,"Nasal cavity Level 3: Cell infiltration, lymphocytes, focal; Grade: minimal",Sprague-Dawley (SD) rats; female,1
same,"Nasal cavity Level 4: Cell infiltration, lymphocytes, focal; Grade: minimal",Sprague-Dawley (SD) rats; female,2
same,"Lung: Cell infiltration, terminal bronchiole/alveolar duct, neutrophils/macrophages",Sprague-Dawley (SD) rats; male,5(100)
same,"Lung: Intraluminal cell debris, terminal bronchiole/alveolar duct",Sprague-Dawley (SD) rats; male,1(20.0)
same,Lung: No specific lesion,Sprague-Dawley (SD) rats; male,0(0.00)
same,"Nasal cavity Level 1: Acute inflammation with necrosis, focal",Sprague-Dawley (SD) rats; male,1(20.0)
same,"Nasal cavity Level 1: Cell infiltration, lymphocytes, focal",Sprague-Dawley (SD) rats; male,0(0.00)
same,Nasal cavity Level 1: No specific lesion,Sprague-Dawley (SD) rats; male,4(80.0)
same,"Nasal cavity Level 2: Acute inflammation with necrosis, focal",Sprague-Dawley (SD) rats; male,1(20.0)
same,"Nasal cavity Level 2: Cell infiltration, lymphocytes, focal",Sprague-Dawley (SD) rats; male,0(0.00)
same,Nasal cavity Level 2: No specific lesion,Sprague-Dawley (SD) rats; male,4(80.0)
same,"Nasal cavity Level 3: Cell infiltration, lymphocytes, focal",Sprague-Dawley (SD) rats; male,2(40.0)
same,Nasal cavity Level 3: No specific lesion,Sprague-Dawley (SD) rats; male,3(60.0)
same,"Nasal cavity Level 4: Cell infiltration, lymphocytes, focal",Sprague-Dawley (SD) rats; male,0(0.00)
same,Nasal cavity Level 4: No specific lesion,Sprague-Dawley (SD) rats; male,5(100)
same,"Lung: Cell infiltration, terminal bronchiole/alveolar duct, neutrophils/macrophages; Grade: minimal",Sprague-Dawley (SD) rats; male,5
same,"Lung: Intraluminal cell debris, terminal bronchiole/alveolar duct; Grades: minimal",Sprague-Dawley (SD) rats; male,1
same,"Nasal cavity Level 1: Acute inflammation with necrosis, focal; Grade: mild",Sprague-Dawley (SD) rats; male,1
same,"Nasal cavity Level 1: Acute inflammation with necrosis, focal; Grade: minimal",Sprague-Dawley (SD) rats; male,0
same,"Nasal cavity Level 1: Cell infiltration, lymphocytes, focal; Grade: minimal",Sprague-Dawley (SD) rats; male,0
same,"Nasal cavity Level 2: Acute inflammation with necrosis, focal; Grade: mild",Sprague-Dawley (SD) rats; male,1
same,"Nasal cavity Level 2: Acute inflammation with necrosis, focal; Grade: minimal",Sprague-Dawley (SD) rats; male,0
same,"Nasal cavity Level 2: Cell infiltration, lymphocytes, focal; Grade: minimal",Sprague-Dawley (SD) rats; male,0
same,"Nasal cavity Level 3: Cell infiltration, lymphocytes, focal; Grade: minimal",Sprague-Dawley (SD) rats; male,2
same,"Nasal cavity Level 4: Cell infiltration, lymphocytes, focal; Grade: minimal",Sprague-Dawley (SD) rats; male,0
